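Exposure lasted 48 hours, with cells grown in 96-well plates and compounds tested at five concentrations. GI50 marks 50% less growth. TGI marks complete inhibition of growth.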
Columns and labels:
Test in all cases: NCI-60 cell line screen, 48 h
[1] = tested on: ACHN renal
[2] = tested on: NCI/ADR-RES ovarian
[3] = tested on: IGROV1 ovarian
[4] = tested on: PC-3 prostate
[5] = tested on: TK-10 renal
[6] = tested on: HL-60(TB) leukemia
[7] = tested on: A498 renal
[8] = tested on: HOP-62 NSCLC
[9] = tested on: K-562 leukemia
[10] = tested on: OVCAR-3 ovarian
[11] = tested on: SR leukemia
[12] = tested on: BT-549 breast
[13] = tested on: UACC-257 melanoma
[14] = tested on: T-47D breast
[15] = tested on: NCI-H226 lung
[16] = tested on: A549 NSCLC
[17] = tested on: OVCAR-4 ovarian
[18] = tested on: M14 melanoma
[19] = tested on: CCRF-CEM leukemia
[20] = tested on: HT29 colon
[21] = tested on: UO-31 renal
[22] = tested on: RPMI-8226 leukemia
[23] = tested on: OVCAR-5 ovarian
[24] = tested on: MCF7 breast
[25] = tested on: NCI-H522 lung
[26] = tested on: RXF 393 renal
[27] = tested on: SN12C renal
[28] = tested on: DU-145 prostate
[29] = tested on: COLO 205 colon
[30] = tested on: SK-MEL-28 melanoma
[31] = tested on: NCI-H460 lung
[32] = tested on: MDA-MB-231 breast
[33] = tested on: MALME-3M melanoma
[34] = tested on: 786-0 renal
[35] = tested on: NCI-H23 lung
[36] = tested on: HCT-116 colon
[37] = tested on: MDA-MB-435
[38] = tested on: OVCAR-8 ovarian
[39] = tested on: SK-MEL-5 melanoma
[40] = tested on: SK-OV-3 ovarian
[41] = tested on: MOLT-4 leukemia
[42] = tested on: KM12 colon
[43] = tested on: HCT-15 colon
[44] = tested on: SW-620 colon
[45] = tested on: SNB-19 CNS
[46] = tested on: SNB-75 CNS
[47] = tested on: UACC-62 melanoma
[48] = tested on: CAKI-1 renal
[49] = tested on: HCC-2998 colon
[50] = tested on: SF-295 CNS
[51] = tested on: SF-539 CNS
[52] = tested on: HS 578T breast
[53] = tested on: SF-268 CNS

FC(F)(F)c1ccc(-c2cnc(Cl)nc2NC2CCCCCC2)cc1
GI50 [1]: > 100 µM
TGI [1]: > 100 µM
GI50 [2]: > 100 µM
TGI [2]: > 100 µM
GI50 [3]: > 100 µM
TGI [3]: > 100 µM
GI50 [4]: 28.7 µM
TGI [4]: > 100 µM
GI50 [5]: > 100 µM
TGI [5]: > 100 µM
GI50 [6]: 24.9 µM
TGI [6]: > 100 µM
GI50 [7]: > 100 µM
TGI [7]: > 100 µM
GI50 [8]: > 100 µM
TGI [8]: > 100 µM
GI50 [9]: 54.1 µM
TGI [9]: > 100 µM
GI50 [10]: > 100 µM
TGI [10]: > 100 µM
GI50 [11]: 38.9 µM
TGI [11]: > 100 µM
GI50 [12]: > 100 µM
TGI [12]: > 100 µM
GI50 [13]: > 100 µM
TGI [13]: > 100 µM
GI50 [14]: 19.1 µM
TGI [14]: > 100 µM
GI50 [15]: > 100 µM
TGI [15]: > 100 µM
GI50 [16]: > 100 µM
TGI [16]: > 100 µM
GI50 [17]: 38.7 µM
TGI [17]: > 100 µM
GI50 [18]: > 100 µM
TGI [18]: > 100 µM
GI50 [19]: 27.9 µM
TGI [19]: > 100 µM
GI50 [20]: 71.1 µM
TGI [20]: > 100 µM
GI50 [21]: > 100 µM
TGI [21]: > 100 µM
GI50 [22]: 8.03 µM
TGI [22]: > 100 µM
GI50 [23]: > 100 µM
TGI [23]: > 100 µM
GI50 [24]: 31.2 µM
TGI [24]: > 100 µM
GI50 [25]: 45.4 µM
TGI [25]: > 100 µM
GI50 [26]: > 100 µM
TGI [26]: > 100 µM
GI50 [27]: > 100 µM
TGI [27]: > 100 µM
GI50 [28]: > 100 µM
TGI [28]: > 100 µM
GI50 [29]: 95.5 µM
TGI [29]: > 100 µM
GI50 [30]: > 100 µM
TGI [30]: > 100 µM
GI50 [31]: 73.1 µM
TGI [31]: > 100 µM
GI50 [32]: 36.4 µM
TGI [32]: > 100 µM
GI50 [33]: > 100 µM
TGI [33]: > 100 µM
GI50 [34]: > 100 µM
TGI [34]: > 100 µM
GI50 [35]: 61.1 µM
TGI [35]: > 100 µM
GI50 [36]: 35.5 µM
TGI [36]: > 100 µM
GI50 [37]: > 100 µM
TGI [37]: > 100 µM
GI50 [38]: > 100 µM
TGI [38]: > 100 µM
GI50 [39]: 62.8 µM
TGI [39]: > 100 µM
GI50 [40]: > 100 µM
TGI [40]: > 100 µM
GI50 [41]: 32.7 µM
TGI [41]: > 100 µM
GI50 [42]: 97.1 µM
TGI [42]: > 100 µM
GI50 [43]: > 100 µM
TGI [43]: > 100 µM
GI50 [44]: > 100 µM
TGI [44]: > 100 µM
GI50 [45]: > 100 µM
TGI [45]: > 100 µM
GI50 [46]: 80.6 µM
TGI [46]: > 100 µM
GI50 [47]: > 100 µM
TGI [47]: > 100 µM
GI50 [48]: 57.4 µM
TGI [48]: > 100 µM
GI50 [49]: > 100 µM
TGI [49]: > 100 µM
GI50 [50]: 69.7 µM
TGI [50]: > 100 µM
GI50 [51]: > 100 µM
TGI [51]: > 100 µM
GI50 [52]: > 100 µM
TGI [52]: > 100 µM
GI50 [53]: > 100 µM
TGI [53]: > 100 µM

From PubChem BioAssay (NCI)
